Data: patent US10155948B2, “Pharmaceutical composition for preventing or treating diabetic complications and screening method for preventive or therapeutic agent for diabetic complications” (KANGWON NATIONAL UNIVERSITY UNIVERSITY-INDUSTRY COOPERATION …, priority 2016, dated 2018)

Legend:
Type in all cases: cell-based, human
[1] = system: HUVECs; assay: VEGF-induced ROS generation in HUVECs
Protocol: Both respectively were grown on 2% gelatin-coated plates in a M199 medium supplemented with 20% fetal bovine serum (FBS), 3 ng/ml basic fibroblastic growth factor, 5 units/ml heparin, 100 units/ml penicillin, and 100 μg/ml streptomycin. For experiments, cells were incubated for 6 hrs in a low-serum medium supplemented with 1% FBS and antibiotics.
Intracellular ROS generation was determined using 2′,7′-dichlorodihydrofluorescein diacetate (H2DCFDA, Molecular Probes, Eugene, Oreg.) staining as previously described. Cells were pretreated with inhibitors for 30 min and co-incubated with 10 ng/ml of VEGF and 10 μM H2DCFDA in low-serum media (phenol red-free) for 10 min. Labeled cells were immediately analyzed using confocal microscopy (Fluoview-300, Olympus). Single-cell fluorescence intensities were determined for 10 randomly selected cells per test. Intracellular ROS levels were determined by comparing average fluorescence intensities of treated cells with those of control cells (expressed as multiples thereof).

[2] = system: HRECs; assay: In-vitro endothelial cell monolayer permeability assay (FITC-dextran, Transwell); conditions: 50 μM cystamine, 20 μM MDC or 100 nM dasatinib 30 min, 10 ng/ml VEGF 90 min, p<0.01
Protocol: In-vitro permeability assay was performed as previously described. HRECs were grown on gelatin-coated inserts (0.4 μm polycarbonate membrane) of Transwell® Permeable Supports (Costar, Corning, N.Y., USA) up to confluence. Approximately 1.0×10^5 cells in 0.5 ml of culture medium were seeded on the upper side of the membrane while 1 ml of culture medium was added to the lower compartment. […] The amount of FITC-dextran that diffused through the endothelial monolayer into the lower chamber was measured using a microplate spectrofluorometer (Molecular Devices, Sunnyvale, Calif., USA).
(A-C) HRECs were preincubated with 50 μM cystamine (Cys) and 20 μM MDC for 30 min and treated with 10 ng/ml VEGF. […] (C) Adherens junctions were quantitatively analyzed using the peak fluorescence intensities of the histograms at the single-cell level. The results are expressed as mean±SD from three independent trials. […] The amount of FITC-dextran that diffused to the lower chamber was measured by a microplate spectrofluorometer (n=3) (**p<0.01).
(A) β-catenin was visualized by confocal microscopy. […] (B) cSrc phosphorylation at Tyr^416 was analyzed by Western blot. […] Results are expressed as mean±SD from three independent experiments (**p<0.01, ***p<0.001).

[3] = system: β-catenin; assay: Visualization of β-catenin in HRECs; conditions: 50 μM cystamine or 100 nM dasatinib 30 min, 10 ng/ml VEGF 90 min
Protocol: For visualization of β-catenin, cells were preincubated with inhibitors for 30 min and treated with 10 ng/ml VEGF for 90 min, fixed with 3.7% formaldehyde, and permeabilized with 0.2% Triton X-100. Cells were incubated overnight with a monoclonal anti-3-catenin antibody (1:200, Santa Cruz Biotechnology) at 4° C. Cells were then probed with an FITC-conjugated goat anti-mouse antibody (1:200, Sigma) and visualized using confocal microscopy. Images for making galleries were cropped to a smaller size using Microsoft PowerPoint 2010 software.
(A) β-catenin was visualized by confocal microscopy. Scale bar, 30 μm. (B) cSrc phosphorylation at Tyr^416 was analyzed by Western blot. (C) In-vitro endothelial cell monolayer permeability assay. Results are expressed as mean±SD from three independent experiments (**p<0.01, ***p<0.001).

[4] = system: c-Src; assay: c-Src phosphorylation (Tyr416) by Western blot in HRECs; conditions: 50 μM cystamine or 100 nM dasatinib 30 min, 10 ng/ml VEGF 15 min
Protocol: Cells were incubated with an ice-cold lysis buffer containing 50 mM Tris-HCl (pH 7.5), 1% Triton X-100, 150 mM NaCl, 1 mM EDTA, 0.1 mM phenylmethylsulfonyl fluoride (PMSF), 10 μg/ml aprotinin, and 10 μg/ml leupeptin for 30 min. Cell lysates were separated by SDS-PAGE and transferred to polyvinylidene fluoride membranes. The membranes were blocked with 5% skim milk in TBS with 0.1% Tween for 1 hr at room temperature (RT). […] Protein bands were visualized using a chemiluminescent substrate (Pierce, Rockford, Ill.).

Row | Structure (SMILES) | VEGF-enhanced ROS generation [1] | VEGF-increased in-vitro endothelial permeability [2] | VEGF-induced β-catenin breakdown [3] | VEGF-induced c-Src phosphorylation (Tyr416) [4]
1 | NCCc1ccc(O)c(O)c1 [dopamine] | inhibited | – | – | –
2 | NCCS [cysteamine] | inhibited | – | – | –
3 | CN(C)c1cccc2c(S(=O)(=O)NCCCCCN)cccc12 [MDC, monodansylcadaverine] | – | inhibited | – | –
4 | NCCSSCCN [cystamine] | – | inhibited | inhibited | prevented
